According to ChEMBL document CHEMBL1201862, “PubChem BioAssay data set” (2004):
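1) Cells in 96-well plates. 2) Compound, 48 h, 5 concentrations. 3) Linear interpolation between surrounding doses. 4) Unreached endpoint = highest concentration. At the GI50, growth is halved.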 The source made the active and inactive calls. Cut-off read from the data, not from the text of the source: active = GI50 up to about 1.1 µM and inactive = higher.

Key:
Assay in all cases: DTP human tumour cell line panel, 48 h
[1] = test system: SF-539
[2] = test system: DLD-1
[3] = test system: RXF 393
[4] = test system: OVCAR-3
[5] = test system: TK-10
[6] = test system: UACC-257
[7] = test system: UACC-62
[8] = test system: OVCAR-4
[9] = test system: MOLT-4
[10] = test system: NCI-H460
[11] = test system: RPMI-8226
[12] = test system: EKVX
[13] = test system: HCT-116
[14] = test system: SK-MEL-2
[15] = test system: HL-60
[16] = test system: K562
[17] = test system: CAKI-1
[18] = test system: PC-3
[19] = test system: DU-145
[20] = test system: MCF7

What does the source list for CCOc1ccc(/N=N/c2ccc3oc(=O)c(/C(C)=N/NC(=O)CC(=O)Nc4cccc(OC)c4)cc3c2)cc1?
GI50 [1]: 17.2 µM (inactive); GI50 [2]: 13.8 µM (inactive); GI50 [3]: 17.3 µM (inactive); GI50 [4]: 13.4 µM (inactive); GI50 [5]: 28.3 µM (inactive); GI50 [6]: 3.8 µM (inactive); GI50 [7]: 13.2 µM (inactive); GI50 [8]: 16.3 µM (inactive); GI50 [9]: 3.56 µM (inactive); GI50 [10]: 20 µM (inactive); GI50 [11]: 8.53 µM (inactive); GI50 [12]: 19.4 µM (inactive); GI50 [13]: 10.2 µM (inactive); GI50 [14]: 20.8 µM (inactive); GI50 [15]: 3.64 µM (inactive); GI50 [16]: 7.96 µM (inactive)

What does the source list for O=S(=O)(OI(OI(OS(=O)(=O)C(F)(F)F)c1ccccc1)c1ccccc1)C(F)(F)F?
GI50 [1]: 86.3 µM (inactive); GI50 [2]: 58.9 µM (inactive); GI50 [3]: 17.3 µM (inactive); GI50 [4]: 93.3 µM (inactive); GI50 [5]: > 100 µM (inactive); GI50 [17]: 27.8 µM (inactive); GI50 [7]: 64.4 µM (inactive); GI50 [9]: 20.2 µM (inactive); GI50 [10]: 39.5 µM (inactive); GI50 [11]: 11.6 µM (inactive); GI50 [12]: 58.9 µM (inactive); GI50 [13]: 23.7 µM (inactive); GI50 [14]: 38.5 µM (inactive); GI50 [15]: 4.33 µM (inactive); GI50 [16]: 6.43 µM (inactive)

How did the GI50 [1] turn out when Cc1ccc(C2=CC(=O)c3ccccc3C2=O)n1-c1ccccc1 was run?
Its GI50 is 89.9 µM (inactive).

And the GI50 [2]?
The GI50 was > 100 µM (inactive).

And the GI50 [3]?
Its GI50 is > 100 µM (inactive).

What about the GI50 [4] of the same compound?
The GI50 was 87.1 µM (inactive).

What about the GI50 [5] of the same compound?
Its GI50 is > 100 µM (inactive).

And the GI50 [7]?
Its GI50 is 41.9 µM (inactive).

What about the GI50 [8] of the same compound?
The GI50 was 25.6 µM (inactive).

And the GI50 [9]?
Its GI50 is 26.1 µM (inactive).

What about the GI50 [10] of the same compound?
The GI50 was 48 µM (inactive).

And the GI50 [11]?
The GI50 was 36.7 µM (inactive).

And the GI50 [12]?
The GI50 was > 100 µM (inactive).

What about the GI50 [13] of the same compound?
The GI50 was 62.1 µM (inactive).

And the GI50 [15]?
Its GI50 is 32.8 µM (inactive).

And the GI50 [16]?
The GI50 was 53 µM (inactive).

For CN(C)c1ccc2c(NCCCCCCNc3ccnc4cc(N(C)C)ccc34)ccnc2c1, which GI50 [1] is on record?
The GI50 was 21.5 µM (inactive).

What about the GI50 [2] of the same compound?
Its GI50 is 43.7 µM (inactive).

And the GI50 [3]?
The GI50 was 16 µM (inactive).

What about the GI50 [4] of the same compound?
Its GI50 is 13.7 µM (inactive).

And the GI50 [5]?
The GI50 was 12.5 µM (inactive).

What about the GI50 [6] of the same compound?
The GI50 was 14.9 µM (inactive).

And the GI50 [17]?
Its GI50 is 42.6 µM (inactive).

And the GI50 [7]?
The GI50 was > 100 µM (inactive).

And the GI50 [8]?
The GI50 was 11.9 µM (inactive).

And the GI50 [9]?
Its GI50 is 6 µM (inactive).

What about the GI50 [10] of the same compound?
Its GI50 is 6.75 µM (inactive).

What about the GI50 [12] of the same compound?
The GI50 was 36.1 µM (inactive).

What about the GI50 [13] of the same compound?
The GI50 was 6.55 µM (inactive).

And the GI50 [14]?
Its GI50 is 20.2 µM (inactive).

And the GI50 [15]?
Its GI50 is 6.7 µM (inactive).

What about the GI50 [16] of the same compound?
Its GI50 is 2.74 µM (inactive).

For COC(=O)/C(C#N)=C1\CCC(C(=O)OC)N1C (stereo unspecified), which GI50 [1] is on record?
The GI50 was > 100 µM (inactive).

What about the GI50 [2] of the same compound?
The GI50 was > 100 µM (inactive).

And the GI50 [3]?
Its GI50 is > 100 µM (inactive).

And the GI50 [4]?
Its GI50 is > 100 µM (inactive).

And the GI50 [5]?
The GI50 was > 100 µM (inactive).

What about the GI50 [6] of the same compound?
Its GI50 is > 100 µM (inactive).

And the GI50 [17]?
Its GI50 is > 100 µM (inactive).

And the GI50 [7]?
Its GI50 is > 100 µM (inactive).

And the GI50 [8]?
Its GI50 is > 100 µM (inactive).

What about the GI50 [9] of the same compound?
The GI50 was > 100 µM (inactive).

What about the GI50 [10] of the same compound?
The GI50 was > 100 µM (inactive).

What about the GI50 [11] of the same compound?
Its GI50 is > 100 µM (inactive).

And the GI50 [12]?
Its GI50 is > 100 µM (inactive).

And the GI50 [13]?
The GI50 was > 100 µM (inactive).

What about the GI50 [14] of the same compound?
The GI50 was > 100 µM (inactive).

What about the GI50 [15] of the same compound?
Its GI50 is > 100 µM (inactive).

And the GI50 [16]?
The GI50 was > 100 µM (inactive).

Which GI50 [1] does the source give for CC(/C(=N/NC(=O)C(N)=O)c1c(Cl)ccc(Cl)c1O)C1(O)C(=O)Nc2ccccc21 (stereo unspecified) here?
The GI50 was 32 µM (inactive).

And the GI50 [2]?
The GI50 was 35.3 µM (inactive).

What about the GI50 [3] of the same compound?
Its GI50 is 55.3 µM (inactive).

What about the GI50 [4] of the same compound?
Its GI50 is 28.6 µM (inactive).

And the GI50 [5]?
The GI50 was 46.9 µM (inactive).

What about the GI50 [6] of the same compound?
Its GI50 is 53.3 µM (inactive).

What about the GI50 [17] of the same compound?
The GI50 was 42.1 µM (inactive).

What about the GI50 [7] of the same compound?
The GI50 was 49.1 µM (inactive).

What about the GI50 [8] of the same compound?
Its GI50 is 29.6 µM (inactive).

And the GI50 [10]?
The GI50 was 28.3 µM (inactive).

What about the GI50 [12] of the same compound?
Its GI50 is 43.3 µM (inactive).

And the GI50 [13]?
The GI50 was 41 µM (inactive).

What about the GI50 [14] of the same compound?
Its GI50 is 33.3 µM (inactive).

What about the GI50 [15] of the same compound?
The GI50 was 26 µM (inactive).

And the GI50 [16]?
Its GI50 is 31 µM (inactive).

COc1cc(OC)c(C2CC=Cc3c(OC)cc(OC)c(OC)c32)cc1OC (stereo unspecified) was tested. Which GI50 [1] did it give?
The GI50 was > 100 µM (inactive).

And the GI50 [2]?
The GI50 was > 100 µM (inactive).

What about the GI50 [3] of the same compound?
The GI50 was > 100 µM (inactive).

And the GI50 [4]?
The GI50 was > 100 µM (inactive).

And the GI50 [5]?
Its GI50 is > 100 µM (inactive).

And the GI50 [6]?
The GI50 was > 100 µM (inactive).

And the GI50 [17]?
Its GI50 is > 100 µM (inactive).

What about the GI50 [7] of the same compound?
Its GI50 is > 100 µM (inactive).

And the GI50 [8]?
Its GI50 is > 100 µM (inactive).

And the GI50 [9]?
The GI50 was > 100 µM (inactive).

And the GI50 [10]?
The GI50 was > 100 µM (inactive).

And the GI50 [11]?
The GI50 was > 100 µM (inactive).

What about the GI50 [12] of the same compound?
Its GI50 is > 100 µM (inactive).

What about the GI50 [13] of the same compound?
Its GI50 is > 100 µM (inactive).

What about the GI50 [14] of the same compound?
Its GI50 is > 100 µM (inactive).

And the GI50 [15]?
Its GI50 is > 100 µM (inactive).

What about the GI50 [16] of the same compound?
Its GI50 is > 100 µM (inactive).

For COc1c(C(=O)c2ccc([N+](=O)[O-])cc2)cc(C(C)(C)C)cc1C(C)(C)C, which GI50 [1] is on record?
Its GI50 is 64.4 µM (inactive).

And the GI50 [2]?
Its GI50 is 54 µM (inactive).

And the GI50 [3]?
Its GI50 is 17.1 µM (inactive).

And the GI50 [5]?
Its GI50 is 13.8 µM (inactive).

And the GI50 [6]?
Its GI50 is 22.9 µM (inactive).

And the GI50 [17]?
The GI50 was 41.6 µM (inactive).

What about the GI50 [7] of the same compound?
The GI50 was 16.7 µM (inactive).

What about the GI50 [8] of the same compound?
The GI50 was 43.1 µM (inactive).

And the GI50 [9]?
Its GI50 is 16.4 µM (inactive).

And the GI50 [10]?
The GI50 was 32.4 µM (inactive).

And the GI50 [11]?
The GI50 was 12.6 µM (inactive).

And the GI50 [12]?
The GI50 was 47.4 µM (inactive).

And the GI50 [13]?
The GI50 was 18.8 µM (inactive).

And the GI50 [14]?
The GI50 was 13.4 µM (inactive).

And the GI50 [15]?
The GI50 was 13.9 µM (inactive).

And the GI50 [16]?
The GI50 was 25.6 µM (inactive).

How did the GI50 [1] turn out when COc1cc(OC(=O)c2ccccc2)cc2c1C(=O)C=CC2=O was run?
The GI50 was 20.1 µM (inactive).

And the GI50 [18]?
The GI50 was 14 µM (inactive).

What about the GI50 [2] of the same compound?
The GI50 was 15.4 µM (inactive).

What about the GI50 [3] of the same compound?
The GI50 was 10.9 µM (inactive).

And the GI50 [4]?
Its GI50 is 5.32 µM (inactive).

And the GI50 [5]?
The GI50 was 17.9 µM (inactive).

And the GI50 [6]?
The GI50 was 16.2 µM (inactive).

And the GI50 [19]?
Its GI50 is 17.7 µM (inactive).

What about the GI50 [20] of the same compound?
The GI50 was 11 µM (inactive).

And the GI50 [17]?
The GI50 was 20.6 µM (inactive).

And the GI50 [7]?
The GI50 was 13.8 µM (inactive).

And the GI50 [8]?
The GI50 was 5.4 µM (inactive).

And the GI50 [9]?
The GI50 was 1.73 µM (inactive).

What about the GI50 [10] of the same compound?
Its GI50 is 34.2 µM (inactive).

What about the GI50 [11] of the same compound?
The GI50 was 2.93 µM (inactive).

And the GI50 [12]?
The GI50 was 13.2 µM (inactive).

What about the GI50 [13] of the same compound?
The GI50 was 6.35 µM (inactive).

And the GI50 [14]?
Its GI50 is 18.1 µM (inactive).

And the GI50 [15]?
The GI50 was 0.556 µM (active).

What about the GI50 [16] of the same compound?
Its GI50 is 1.88 µM (inactive).
